Experimental data as given in patent US20240261276A1, “NITROXOLINE FOR USE IN THE TREATMENT OF CUTANEOUS NEUROFIBROMA” (HEALX LTD, priority 2021, published 2024).

Assays:
[1] = test system: cNF tumour cells (Tom+) in the skin of Nf1-KO mice; test: In vivo drug testing in Nf1-KO mice with established cNFs; design: species or system mouse; settings: one month
Excerpt: This study uses the same mouse model that was used for in vitro testing, the Prss56Cre/+, R26tdTom/+, NF1f/l mouse (Radomska et a., 2019). This study is a standard experimental design in the field with endpoints being terminal and not longitudinal throughout study.
Prss56Cre/+, R26tdTom/+, NF19/fl herein referred to as Nf1-KO mice develop cNFs after one year of age. However, cNF development occurs at an earlier age after skin injury induced by mice fighting, which is normal mouse behaviour. In this experiment, at least five six-week old Nf1-KO male mice were placed in a cage together, once the mice had sustained a level of skin injury via fighting they were removed from the cage and monitored. At approximately three months of age the mice that had sustained fighting injuries developed several cNFs. As a fluorescent reporter gene is turned on in cells that have Nf1 deleted, cNF development could be monitored via fluorescent imaging of the skin using an epifluorescent microscope (Leica MZ75). After 1-2 months mice that had established, mature cNFs were then enrolled into a drug treatment study. […]
Schwann cells that are Nf1-null also express the fluorescent reporter tomato (Tom+). cNFs are derived from Nf1-null SCs which are Tom+, therefore fluorescence can be used to identify tumours. […]

Tom+ NF1+/− cells [2] = test: Cell death assay (DAPI, cytometry) in floating sphere culture, control cells; assay type: cell-based, mouse; settings: for Cell death of NF1+/− cells at highest concentration: 100 μM, excluded from analysis
Protocol: (§1) This study uses a Nf1-KO mouse strain(Prss56Cre/+, R26tdTom/+, NF1fl/fl) developing cutaneous neurofibromas (cNFs) that faithfully recapitulates human disease (Radomska et a., 2019). In this model, simultaneous bi-allelic loss of Nf1 and expression of Tomato fluorescent reporters were targeted into glial-stem like cells at the origin of cNFs. The assay was performed ex vivo using non-adherent cells in which Tomato expressing Nf1−/− and Nf1+/− stem-like cells from skin can be amplified, and their properties further characterized. […] In this system, Nf1−/− cells express high levels of p-ERK (as expected due to the permanent activation of the RAS pathway), proliferate much faster compared to controls and preserve the capacity to reform spheres after dissociation and re-plating.
(§2) This in vitro culture system uses Tomato (Tom)+ stem-like glial cells at the origin of cNFs that can be amplified and propagated for the long periods. Briefly, skin from young mutant (NF1−/−) and control (NF1+/−) mice was dissected, dissociated and cell suspension incubated in the non-adherent condition with the presence of two mitogens, FGF and EGF. In such conditions only stem-like cells survive, proliferate and form compact multicellular floating structures called neurospheres. Since, in addition to the Tom+ glial stem-like cells, skin contains various other types of stem cells (Tom−), the neurospheres are composed of the intermingled Tom+ and Tom− cells. While in the mutant condition, neurospheres contain Tom+, Nf1−/− and Tom−, Nf1+/+ cells, in the Nf1+/− control condition neurospheres are composed of Tom+, Nf1+/− and Tom−, Nf1+/+ cells. In this study we have analysed the drug effect in Tom+ from NF1−/− and NfF1+/− mice.
(§3) In the present study, floating sphere culture of Nf1+/−(Prss56Cre, R26Tom, Nf1flox/+) and Nf1−/− (Prss56Cre, R26Tom, Nf1flox/flox) glial cells isolated from newborn mouse skin were used. Then they are plated and treated and analysed independently. With this intent, Nf1+/− and Nf1−/− spheres were amplified until passage 3 (1 passage corresponds to 7 days of culture). At the end of PO (10 days), cells were split into 4 identical batches (clones 1-4), and were amplified to P3 (FIG. 1).
(§4) At the end of P3, spheres from each clone were dissociated and cells transferred into two 12 well plates. 6 different concentrations (100 μm, 33 μm, 10 μm, 3 μm, 1 μm and 0 μm) of drug were added and cells were incubated for 72 h. An additional 12 well plate containing cells with DMSO (vehicle used for the drug resuspension) was used as a reference for the normalization of results. After 72 h analyses was performed the on the non-fixed cells: proliferative and cell death assay.
(§5) At 72 h of culture, cells were labelled for quantification of cell death using DAPI (4′,6-diamidino-2-phenylindole). Labelled cells were analyzed by cytometry with LSR Fortessa X20 (BD Biosciences).

Tom+ NF1+/− cells [3] = test: Proliferative activity (CellTrace, cytometry) in floating sphere culture, control cells; assay type: cell-based, mouse
Protocol: This study uses a Nf1-KO mouse strain(Prss56Cre/+, R26tdTom/+, NF1fl/fl) developing cutaneous neurofibromas (cNFs) that faithfully recapitulates human disease (Radomska et a., 2019). In this model, simultaneous bi-allelic loss of Nf1 and expression of Tomato fluorescent reporters were targeted into glial-stem like cells at the origin of cNFs. The assay was performed ex vivo using non-adherent cells in which Tomato expressing Nf1−/− and Nf1+/− stem-like cells from skin can be amplified, and their properties further characterized. […]
This in vitro culture system uses Tomato (Tom)+ stem-like glial cells at the origin of cNFs that can be amplified and propagated for the long periods. […] In this study we have analysed the drug effect in Tom+ from NF1−/− and NfF1+/− mice.
In the present study, floating sphere culture of Nf1+/−(Prss56Cre, R26Tom, Nf1flox/+) and Nf1−/− (Prss56Cre, R26Tom, Nf1flox/flox) glial cells isolated from newborn mouse skin were used. Then they are plated and treated and analysed independently. […]
For the analysis of proliferative activity, a cell tracker lipophilic dye (CellTrace Proliferation Kit, Thermo Fishers) was used. […] Cells were incubated for 72 h and proliferative activity was measured by cytometry analysis using LSR Fortessa X20 (BD Biosciences). This method measures a mean fluorescence intensity (MIF) for each condition. […]

Tom+ NF1−/− cells [4] = test: Proliferative activity (CellTrace, cytometry) in floating sphere culture, mutant cells; assay type: cell-based, mouse; settings: for Ratio MIFmean (proliferation): NF1−/− cells, normalised to DMSO
Protocol: as §1, §2, §3, §4
For the analysis of proliferative activity, a cell tracker lipophilic dye (CellTrace Proliferation Kit, Thermo Fishers) was used. The cell tacker was added at the same time as the drugs. Cells were incubated for 72 h and proliferative activity was measured by cytometry analysis using LSR Fortessa X20 (BD Biosciences). This method measures a mean fluorescence intensity (MIF) for each condition. The condition with DMSO was used as a reference.

Tom+ NF1−/− cells [5] = test: Cell death assay (DAPI, cytometry) in floating sphere culture, mutant cells; assay type: cell-based, mouse; settings: for Ratio dead cells mean / Cell death of NF1−/− cells at highest concentration: 72 h; for Ratio dead cells mean: NF1−/− cells; for Cell death of NF1−/− cells at highest concentration: 100 μM, excluded from analysis
Protocol: as §1, §2, §3, §4, §5

[6] = incubation with Selumetinib, concentration not given

Row | SMILES | Overall abundance of cNF tumour cells in the skin ([1]; 120 mg/kg once daily) | Tumour size versus vehicle treated mice (fluorescent imaging of Tom+ cells) ([1]; 120 mg/kg oral gavage once a day (5 days on, 2 days off)) | Effect on cell death of NF1+/− cells (Tom+ NF1+/− cells [2]; 33 μM, 72 h) | Cell death of NF1+/− cells at highest concentration (Tom+ NF1+/− cells [2]; 72 h) | Cell death of NF1+/− cells at highest concentration (Tom+ NF1+/− cells [2]; 72 h, listed as nitroxoline) | Effect on cell death of NF1+/− cells (control conditions) (Tom+ NF1+/− cells [2]; lower concentrations (10 μM and below), 72 h) | Effect on proliferation of NF1+/− cells (Tom+ NF1+/− cells [3]; 33 μM to 1 μM, 72 h) | Ratio MIFmean (proliferation) (Tom+ NF1−/− cells [4]; 1 μM, 72 h) | Ratio MIFmean (proliferation) (Tom+ NF1−/− cells [4]; 3 μM, 72 h) | Ratio MIFmean (proliferation) (Tom+ NF1−/− cells [4]; 10 μM, 72 h) | Effect on proliferative activity of NF1−/− cells (Tom+ NF1−/− cells [4]; 33 μM to 1 μM, 72 h, except clone 3) | Ratio MIFmean (proliferation) (Tom+ NF1−/− cells [4]; 33 μM, 72 h) | Ratio dead cells mean (Tom+ NF1−/− cells [5]; 10 μM) | Ratio dead cells mean (Tom+ NF1−/− cells [5]; 33 μM) | Cell death of NF1−/− cells at highest concentration (Tom+ NF1−/− cells [5]) | Cell death of NF1−/− cells at highest concentration (Tom+ NF1−/− cells [5]; listed as nitroxoline) | Effect on death of Nf1+/− cells (Tom+ NF1+/− cells [2]; [6]) | Effect on proliferative activity of Nf1+/− cells (Tom+ NF1+/− cells [3]; [6]) | Effect on proliferative activity of Nf1−/− (mutant) cells (Tom+ NF1−/− cells [4]; [6]) | Effect on death of Nf1−/− (mutant) cells (Tom+ NF1−/− cells [5]; [6])
1 | O=[N+]([O-])c1ccc(O)c2ncccc12 [Nitroxoline, 5-nitroquinolin-8-ol] | reduces the overall abundance of cNF tumour cells | smaller | without affecting NF1+/− cells | massive cell death | massive nonspecific death | without affecting control conditions | not affected | 0,7+/−0,26 | 0,60+/−0,22 | 0,5+/−0,18 | reduced proliferative activity | 0,39+/−0,11 | 2,04+/−0,63 | 8,86+/−0,66 | massive cell death | massive nonspecific death |  |  |  | 
2 | Cn1cnc2c(F)c(Nc3ccc(Br)cc3Cl)c(C(=O)NOCCO)cc21 [Selumetinib, 6-(4-bromo-2-chloroanilino)-7-fluoro-N-(2-hydroxyethoxy)-3-methylbenzimidazole-5-carboxamide] |  |  |  |  |  |  |  |  |  |  |  |  |  |  |  |  | without affecting Nf1+/− cells | without affecting Nf1+/− cells | decreases proliferative activity | promotes death of mutant
